Test results from patent US20120095215A1, “MEDICAL COMPOSITION FOR TREATMENT OR PROPHYLAXIS OF EYE DISEASES” (UBE INDUSTRIES, LTD., priority 2009, published 2012).
Where a name gives a salt, the structure may show the parent alone.

Experiments:
αvβ3 protein = biological target: T1, αvβ3 protein (Homo sapiens, UniProt P05106+P06756); experiment: αvβ3 protein binding test (fluorescence polarization, FITC-Echistatin); conditions: inhibition of binding of Echistatin and αvβ3 protein, 37° C., 30 minutes
T1 construct: purchased CHEMICON CORP; CC1019
Procedure: The method of Davis et al. (Proc. Natl. Acad. Sci., 96(16), 9269 (1999)) was partially modified and carried out.
By using Echistatin (available from SIGMA), Fluorescein Amine Labeling Kit for Peptides and Proteins (available from PanVera Corp., P2058) and Gel Filtration of Proteins Kit (P2101, PanVera Corp.), fluorescein isothiocyanate (hereinafter abbreviated to as FITC)-Echistatin was prepared. Then, with 137 μL of Tris-buffer (10 mM Tris base, 1 mM CaCl2, 1 mM MgCl2, 1 mM MnCl2, pH 7.4) were mixed 1 μL of 200 nM FITC-Echistatin (final concentration: 1 nM) and 2 μL of […] bovine serum albumin (hereinafter abbreviated to as BSA; available from SIGMA) (final concentration: 1 mg/mL). To the mixture was added 10 μL of the test compound, then, 50 μL of 4 nM αvβ3 (CC1019, available from CHEMICON CORP.) (final concentration: 1 nM) was added to the mixture and the resulting mixture was incubated at 37° C. for 30 minutes. By measuring fluorescence polarization degrees with BEACON2000 (available from PanVera Corp.), binding of Echistatin and αvβ3 protein was evaluated. The concentration (IC50 value) of the test compound necessary for inhibiting 50% of binding of Echistatin and αvβ3 protein was calculated by using EXSAS (available from Arm Systecs Co. Ltd.).

[1] = test system: HUVEC (human umbilical vein endothelial cell), αvβ3 expressing cell; experiment: αvβ3 expressing cell adhesion test (HUVEC on human vitronectin); format: cell-based; conditions: HUVEC binding to human vitronectin, 50% human serum-containing DMEM, 1 hour; read-out: αvβ3 developed cell adhesion inhibition IC50 value
Procedure: The method of Juliano, et al. (Exp. Cell Res., 225(1), 132 (1996)) was partially modified and carried out.
Human vitronectin (available from CHEMICON CORP.) was adjusted to 10 μg/mL with phosphate buffered saline (hereinafter abbreviated to as PBS). This was apportioned on a 96-well plate (MS9586F, available from SUMIRON Co., Ltd.) with 100 μL/well, subjected to coating at room temperature for 1 hour, then, the coating solution was removed and dried. Thereafter, blocking treatment was carried out by 1.0% BSA dissolved in Dulbecco's Modified Eagle's Medium (hereinafter abbreviated to as DMEM) for 1 hour, followed by washing with PBS, and the obtained material was used for the adhesion test as a coating plate. HUVEC (human umbilical vein endothelial cell) (available from Clonetics Corp.) cultured in an endocerial cell basal medium EBM2 (available from Clonetics Corp.) containing growth factor EGM2 (available from Clonetics Corp.) and 10% fatal bovin serum (hereinafter abbreviated to as FBS) was peeled by using trypsin-ethylenediamine tetraacetic acid, washed by using PBS and recovered, and then, suspended in 50% human serum-containing DMEM to prepare a cell solution of HUVEC. To human vitronectin coating plates was added a 50% human serum-containing DMEM solution containing the HUVEC cell solution and the test compound each 50 μL/plate to start the adhesion test. […]

αvβ5 protein = biological target: T2, αvβ5 protein (Homo sapiens, UniProt P06756+P18084); experiment: αvβ5 protein binding test (Biotin-Echistatin plate assay); conditions: inhibition of binding between Echistatin and αvβ5 protein
T2 construct: purchased CHEMICON Corp. CC1023
Procedure: The method of C. P. Carron et al. (J. Endocrinology, 165, 587 (2000)) was partially modified and carried out.
By using Echistatin (available from Bachem) and EZ-Link NHS-Biotin Reagent (available from Pierce Biotechnology Inc.), Biotin-Echistatin was prepared. Then, αvβ5 (CC1023, available from CHEMICON Corp.) was mixed with a Tris buffer solution (20 mM tris(hydroxymethyl)aminomethane, 150 mM NaCl, 1 mM CaCl2, 1 mM MgCl2, 1 mM MnCl2, pH 7.5), the mixture was added to Nunc immunoplate Maxisoap (available from Nalge Nunc Int. Co.), and incubated at room temperature overnight. The solution was removed, a Block Ace (available from Dai Nippon Sumitomo Pharma Co., Ltd.) solution was added to the residue and the mixture was incubated at room temperature for 2 hours, then, the solution was again removed and the residue was washed with 0.05% Tween-PBS. Next, a Tris buffer solution containing 10 mg/mL of bovine serum albumin (hereinafter abbreviated to as BSA; available from SIGMA) and the test compound was added to the mixture, and the resulting mixture was incubated at room temperature for 30 minutes. […] An absorbance at 495 nm was measured by Microplate reader (Spectra Fluor, available from TECAN Group, Ltd.) to evaluate binding of Echistatin and αvβ5 protein. […]

T1 sequence (P06756 31-889 limits assumed): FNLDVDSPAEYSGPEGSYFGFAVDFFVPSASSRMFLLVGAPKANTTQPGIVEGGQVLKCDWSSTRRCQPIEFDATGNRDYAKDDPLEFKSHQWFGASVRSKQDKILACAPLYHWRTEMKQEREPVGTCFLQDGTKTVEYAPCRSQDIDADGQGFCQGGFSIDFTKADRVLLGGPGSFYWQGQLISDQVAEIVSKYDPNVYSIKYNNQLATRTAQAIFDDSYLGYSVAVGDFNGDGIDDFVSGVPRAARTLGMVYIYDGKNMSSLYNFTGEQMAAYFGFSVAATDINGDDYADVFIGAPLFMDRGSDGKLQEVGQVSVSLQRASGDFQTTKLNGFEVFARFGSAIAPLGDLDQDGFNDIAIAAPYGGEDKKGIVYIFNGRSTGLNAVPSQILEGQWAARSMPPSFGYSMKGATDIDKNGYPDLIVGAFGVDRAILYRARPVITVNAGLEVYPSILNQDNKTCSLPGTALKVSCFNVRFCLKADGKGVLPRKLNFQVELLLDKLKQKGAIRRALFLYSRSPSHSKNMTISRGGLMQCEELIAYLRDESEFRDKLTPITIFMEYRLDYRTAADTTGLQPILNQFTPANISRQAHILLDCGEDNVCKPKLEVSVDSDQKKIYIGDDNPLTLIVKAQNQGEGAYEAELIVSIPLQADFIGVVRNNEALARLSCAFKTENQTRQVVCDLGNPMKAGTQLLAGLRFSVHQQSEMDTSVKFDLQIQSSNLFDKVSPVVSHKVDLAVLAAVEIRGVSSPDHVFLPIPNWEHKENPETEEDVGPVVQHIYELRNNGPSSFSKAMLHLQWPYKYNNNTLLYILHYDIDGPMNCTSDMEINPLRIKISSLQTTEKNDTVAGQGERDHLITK
T1 sequence (P06756 891-1048 partner limits assumed): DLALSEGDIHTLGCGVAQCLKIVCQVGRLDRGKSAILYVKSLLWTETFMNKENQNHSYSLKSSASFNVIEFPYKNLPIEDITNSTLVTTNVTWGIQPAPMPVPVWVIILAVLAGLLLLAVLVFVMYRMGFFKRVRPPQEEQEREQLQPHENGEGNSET
T1 sequence (P05106 27-788): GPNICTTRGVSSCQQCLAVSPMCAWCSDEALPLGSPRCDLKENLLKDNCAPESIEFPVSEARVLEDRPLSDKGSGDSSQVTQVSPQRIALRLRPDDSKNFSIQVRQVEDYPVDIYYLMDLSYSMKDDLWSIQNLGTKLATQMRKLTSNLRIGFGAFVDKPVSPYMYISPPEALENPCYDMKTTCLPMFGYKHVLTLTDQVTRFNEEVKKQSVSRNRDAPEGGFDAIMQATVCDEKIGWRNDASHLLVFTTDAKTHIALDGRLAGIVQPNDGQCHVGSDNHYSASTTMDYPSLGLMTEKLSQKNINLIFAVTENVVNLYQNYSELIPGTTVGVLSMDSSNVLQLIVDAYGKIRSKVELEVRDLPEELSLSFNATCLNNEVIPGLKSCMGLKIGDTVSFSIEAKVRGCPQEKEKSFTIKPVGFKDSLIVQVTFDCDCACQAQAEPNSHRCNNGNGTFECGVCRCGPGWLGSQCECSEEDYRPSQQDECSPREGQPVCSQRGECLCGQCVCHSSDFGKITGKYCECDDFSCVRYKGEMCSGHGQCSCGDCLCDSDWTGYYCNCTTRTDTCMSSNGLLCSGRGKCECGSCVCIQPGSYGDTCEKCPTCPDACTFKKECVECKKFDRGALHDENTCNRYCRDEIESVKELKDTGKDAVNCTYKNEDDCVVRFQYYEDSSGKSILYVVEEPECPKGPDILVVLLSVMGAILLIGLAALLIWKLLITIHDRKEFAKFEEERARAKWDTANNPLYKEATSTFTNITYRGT
T2 sequence (P06756 31-889 limits assumed): as the sequence (P06756 31-889 limits assumed) above
T2 sequence (P06756 891-1048 partner limits assumed): as the sequence (P06756 891-1048 partner limits assumed) above
T2 sequence (P18084 24-799): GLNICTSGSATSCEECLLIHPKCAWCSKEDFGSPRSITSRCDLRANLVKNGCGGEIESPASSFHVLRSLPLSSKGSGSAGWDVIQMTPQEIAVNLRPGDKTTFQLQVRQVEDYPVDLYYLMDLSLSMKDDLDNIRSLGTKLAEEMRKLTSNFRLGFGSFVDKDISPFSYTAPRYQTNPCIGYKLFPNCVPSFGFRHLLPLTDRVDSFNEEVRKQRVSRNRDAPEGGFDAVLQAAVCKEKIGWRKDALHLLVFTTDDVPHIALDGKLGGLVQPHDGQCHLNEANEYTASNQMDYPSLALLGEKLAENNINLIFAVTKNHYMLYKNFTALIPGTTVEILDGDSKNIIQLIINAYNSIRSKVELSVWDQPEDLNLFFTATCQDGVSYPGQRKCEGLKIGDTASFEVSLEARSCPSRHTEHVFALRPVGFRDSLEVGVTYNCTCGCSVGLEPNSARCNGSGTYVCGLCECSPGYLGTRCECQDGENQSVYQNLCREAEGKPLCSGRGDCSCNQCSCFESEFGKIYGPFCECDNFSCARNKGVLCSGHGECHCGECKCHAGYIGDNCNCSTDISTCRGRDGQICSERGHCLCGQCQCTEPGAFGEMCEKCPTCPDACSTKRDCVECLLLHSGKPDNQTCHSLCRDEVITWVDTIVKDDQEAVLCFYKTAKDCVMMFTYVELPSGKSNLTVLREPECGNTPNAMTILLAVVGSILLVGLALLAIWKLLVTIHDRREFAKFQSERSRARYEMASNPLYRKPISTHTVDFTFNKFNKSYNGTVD

| SMILES | IC50 (αvβ3 protein) [nM] | IC50 (αvβ5 protein) [nM] | IC50 [1] [nM] |
| --- | --- | --- | --- |
| O=C(O)CC1Cc2ccc(OCCc3cn4c(n3)NCCN4)cc2CN(CC(F)(F)F)C1=O (stereo not drawn) [Example 3, 3-Oxo-8-[2-(1,2,3,4-tetrahydroimidazo[1,2-b][1,2,4]triazin-6-yl)ethoxy]-2-(2,2,2-trifluoroethyl)-2,3,4,5-tetrahydro-1H-2-benzazepin-4-acetate trifluoroacetate] | 1.3 |  |  |
| CNc1cccc(CCOc2ccc3c(c2)CN(CC(F)(F)F)C(=O)C(CC(=O)O)C3)n1 (racemic) [Compund A, 8-[2-[6-(methylamino)pyridin-2-yl]-1-ethoxy]-3-oxo-2-(2,2,2-trifluoroethyl)-2,3,4,5-tetrahydro-1H-2-benzazepin-4-acetic acid, reference compound] | 7.1 |  | 161 |
| O=C(O)C[C@@H]1Cc2ccc(OCCCNc3ccccn3)cc2CN(CC(F)(F)F)C1=O [Compund B, (4S)-3-oxo-8-[3-(pyridin-2-ylamino)-1-propyloxy]-2-(2,2,2-trifluoroethyl)-2,3,4,5-tetrahydro-1H-2-benzazepin-4-acetic acid, reference compound] | 2.6 | 1.3 |  |

Now from value to compound, other results behind:

| IC50 (αvβ3 protein) [nM] | IC50 (αvβ5 protein) [nM] | SMILES | IC50 [1] [nM] |
| --- | --- | --- | --- |
| 1.2 |  | O=C(O)CC1Cc2ccc(OCCc3cn4c(n3)NCCC4)cc2CN(CC(F)(F)F)C1=O (stereo not drawn) [Example 2, 3-oxo-8-[2-(5,6,7,8-tetrahydroimidazo[1,2-a]pyrimidin-2-yl)ethoxy]-2-(2,2,2-trifluoroethyl)-2,3,4,5-tetrahydro-1H-2-benzazepin-4-acetate trifluoroacetate] | 61 |
| 0.6 | 0.2 | O=C(O)C[C@@H]1Cc2ccc(OCCc3cn4c(n3)NCCC4)cc2CN(CC(F)(F)F)C1=O [Example 4, (4S)-3-oxo-8-[2-(5,6,7,8-tetrahydroimidazo[1,2-a]pyrimidin-2-yl)ethoxy]-2-(2,2,2-trifluoroethyl)-2,3,4,5-tetrahydro-1H-2-benzazepin-4-acetic acid] |  |
